For assay [1], the target named is horseradish peroxidase (HRP) (Armoracia rusticana, UniProt P00433). The settings on record: with H2O2; cited from earlier work.
Another assay relates to Drosophila eggs. The note with it: PHG in the food, excess dietary (100 μM) Br^−.
The target in a further assay is peroxidase (Drosophila melanogaster, UniProt Q9VZZ4). The settings on record: Nelson et al., 1994; read-out: half-maximum inhibitory concentration (IC50); cited from earlier work.
In assay [2] the test system is PFHR-9 basement membrane collagen IV. Description: HEK293 cell overlay on uncrosslinked PFHR-9 collagen IV networks. The class given is cell-based, mouse. The settings on record: HEK293 cells plated on uncrosslinked PFHR-9 basement membrane; PHG 50 μM where present. The procedure:
FIGS. 5A-D—Peroxidasin uniquely crosslinks native collagen IV networks. (FIG. 5A) Experimental design of ‘overlay’ experiments. PFHR-9 cells were grown in the presence of phloroglucinol (PHG; 50 μM) to deposit uncrosslinked collagen IV (Col IV) networks. The cells were then removed, and the basement membrane was extracted with 4 M guanidine (Gdn) to inactivate endogenous peroxidasin. Cells stably transfected with human peroxidasin (PXDN) or untransfected HEK293 cells (WT HEK) were plated on top of the PFHR9 basement membrane, which was subsequently analyzed for collagen IV crosslink content. (FIG. 5B) Collagen IV-sulfilimine bond formation in the indicated experimental conditions as shown by stained SDS-PAGE gel. Two (WT HEK cells) or three (PXDN, with or without PHG) out of five independent experiments are shown. MW, molecular weight. (FIG. 5C) Coomassie blue-stained gel of collagen IVNC1 hexamers isolated from uncrosslinked PFHR-9 basement membrane overlaid with HEK293T cells transiently transfected with human peroxidasin cDNA, mouse myeloperoxidase cDNA (MPO), mouse lactoperoxidase cDNA (LPO) or empty vector (Mock). […]
PFHR-9 cells were grown in the presence of 50 μM phloroglucinol to produce noncrosslinked collagen IV. […] Plates were incubated for 24-48 h, and collagen IV was analyzed for NC1 crosslink formation. […]

A further assay relates to PFHR-9 cells. Kind of assay: Collagen IV sulfilimine crosslink formation in PFHR-9 cell culture (NC1 hexamer, SDS-PAGE). The settings on record: inhibitor present during cellular deposition of basement membrane; FIG. 2A: PHG 50 μM, MMI 1 mM, KI 10 mM, 3-AT 10 mM, BAPN 500 μM, putrescine 2.5 mM. The class given is cell-based, mouse.
The subject of a further assay is collagen IV NC1 hexamer. Description: Purified peroxidases reacted with uncrosslinked NC1 hexamer and H2O2. The class given is biochemical, mouse. The settings on record: 16 nM enzyme, 500 nM NC1 hexamer, 10 μM H2O2, 1×PBS. The protocol: (§1) (FIG. 3A) SDS-PAGE of reactions consisting of 16 nM purified human peroxidasin (PXDN), 500 nM monomeric NC1 hexamer (3 μM potential crosslinks) and 10 μM H2O2 in 1×PBS. Control reactions without H2O2 or in the presence of the peroxidase inhibitor phloroglucinol (PHG; 50 μM) were also conducted. D represents crosslinked dimeric NC1 subunits, and M denotes uncrosslinked monomeric subunits. MW, molecular weight. (FIG. 3B) Coomassie blue-stained gel after SDS-PAGE of collagen IVNC1 hexamer is shown to illustrate relative amounts of sulfilimine-crosslinked dimeric (D) and uncrosslinked monomeric (M) subunits after incubation of uncrosslinked PFHR-9 basement membranes in varying buffer halide concentrations (Br— or Cl— as K+ salt) with or without 1 mM H2O2. (FIG. 3C) PXDN-mediated hypohalous acid (HOX) production expressed as nmol hypohalous acid generated per nmol enzyme per min, measured in 1×PBS plus 100 μM NaBr. Values represent mean±s.e.m. (n=3). (FIG. 3D) HOCl production measured directly in 1×PBS without added Br—. Values denote mean±s.e.m. (n=4). […] (FIG. 3E) HOX production, measured in nmol HOX generated per nmol enzyme per min for myeloperoxidase (MPO), eosinophil peroxidase (EPO) or LPO in 1×PBS plus 100 μM NaBr. Values represent mean±s.e.m. (n=3).
PHG, phloroglucinol; MW, molecular weight.
If peroxidasin uses hypohalous acids as intermediates to form sulfilimine bonds, these intermediates should recapitulate the reaction when directly added to purified, uncrosslinked collagen IV NC1 hexamer. […] Alternatively, other peroxidasesis provided to form reactive hypohalous acids.

A short description of assay [3]: Hypohalous acid production by peroxidases (taurine haloamine trapping). The class given is biochemical. The note with it: for hypohalous acid formation: 1×PBS plus 100 μM NaBr or without added Br—; for HOCl production: 1×PBS without added Br— (FIG. 3D). The protocol:
as §1
Hypohalous acids were trapped as stable taurine haloamines, which oxidize tetramethylbenzidine to yield a colorimetric measure of hypohalous acid concentration and production (Dypbukt et al., 2005).
Animal heme peroxidases, such as peroxidasin, myeloperoxidase, eosinophil peroxidase and lactoperoxidase, catalyze oxidative reactions using distinct halogenation and peroxidase cycles (Obinger, 2006). Both begin with hydrogen peroxide oxidation of the prosthetic heme iron to form an intermediate denoted compound I (Obinger, 2006). Compound I may oxidize halides into their respective hypohalous acids (or related oxidants in equilibrium), which may directly or indirectly halogenate susceptible moieties. Alternatively, compound I undergoes sequential reduction to form single electron-free radicals of energetically favorable substrates in the peroxidase cycle. Both pathways eventually regenerate reduced, native enzyme (Obinger, 2006). To determine whether peroxidasin forms sulfilimine bonds using a halogenation cycle, the inventors first tested whether peroxidasin crosslinks collagen IV in the absence of halides.

For a further assay, the target named is T1, myeloperoxidase (Homo sapiens, UniProt P05164).
T1 sequence (P05164 49-745): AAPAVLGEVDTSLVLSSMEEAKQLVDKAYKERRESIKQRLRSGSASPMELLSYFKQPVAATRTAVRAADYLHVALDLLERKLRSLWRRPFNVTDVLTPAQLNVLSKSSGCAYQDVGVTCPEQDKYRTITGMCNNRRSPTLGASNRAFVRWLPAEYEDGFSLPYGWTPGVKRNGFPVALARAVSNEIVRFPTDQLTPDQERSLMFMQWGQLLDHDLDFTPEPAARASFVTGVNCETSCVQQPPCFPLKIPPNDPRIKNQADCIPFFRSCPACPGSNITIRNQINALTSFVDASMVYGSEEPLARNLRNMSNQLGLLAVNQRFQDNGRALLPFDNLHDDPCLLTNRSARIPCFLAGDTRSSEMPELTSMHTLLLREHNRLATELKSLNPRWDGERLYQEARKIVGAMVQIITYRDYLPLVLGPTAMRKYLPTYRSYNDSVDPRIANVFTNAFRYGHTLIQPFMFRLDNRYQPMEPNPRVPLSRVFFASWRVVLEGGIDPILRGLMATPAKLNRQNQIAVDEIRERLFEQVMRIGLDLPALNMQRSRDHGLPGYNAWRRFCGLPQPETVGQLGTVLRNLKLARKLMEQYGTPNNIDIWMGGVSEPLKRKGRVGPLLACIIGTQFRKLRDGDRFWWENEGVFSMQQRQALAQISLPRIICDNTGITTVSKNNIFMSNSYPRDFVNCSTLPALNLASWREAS
The note with it: cited from earlier work.

For a further assay, the target named is T2, thyroid peroxidase (Homo sapiens, UniProt P07202).
T2 sequence (P07202 19-933): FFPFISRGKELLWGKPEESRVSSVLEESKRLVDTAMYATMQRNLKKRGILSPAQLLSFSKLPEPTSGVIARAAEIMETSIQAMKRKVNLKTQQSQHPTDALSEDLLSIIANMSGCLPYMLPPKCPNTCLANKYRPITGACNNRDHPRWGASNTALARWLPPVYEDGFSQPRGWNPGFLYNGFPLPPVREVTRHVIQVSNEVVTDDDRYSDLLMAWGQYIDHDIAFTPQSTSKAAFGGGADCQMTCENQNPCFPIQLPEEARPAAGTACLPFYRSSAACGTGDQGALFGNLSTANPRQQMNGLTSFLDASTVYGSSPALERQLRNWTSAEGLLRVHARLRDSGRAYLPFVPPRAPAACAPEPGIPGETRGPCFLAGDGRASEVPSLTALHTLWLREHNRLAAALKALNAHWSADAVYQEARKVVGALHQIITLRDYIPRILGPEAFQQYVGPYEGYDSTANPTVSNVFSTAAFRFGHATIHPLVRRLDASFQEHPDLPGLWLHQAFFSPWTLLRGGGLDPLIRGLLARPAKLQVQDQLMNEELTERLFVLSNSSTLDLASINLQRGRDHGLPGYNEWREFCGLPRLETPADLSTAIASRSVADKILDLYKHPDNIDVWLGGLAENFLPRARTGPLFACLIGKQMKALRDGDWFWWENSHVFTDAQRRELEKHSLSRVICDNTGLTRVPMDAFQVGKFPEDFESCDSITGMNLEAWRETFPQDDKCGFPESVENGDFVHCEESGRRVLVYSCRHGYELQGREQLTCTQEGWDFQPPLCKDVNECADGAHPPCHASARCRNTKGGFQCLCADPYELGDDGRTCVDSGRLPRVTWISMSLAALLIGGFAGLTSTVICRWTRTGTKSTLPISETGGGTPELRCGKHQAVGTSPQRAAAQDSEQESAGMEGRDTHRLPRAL
The note with it: cited from earlier work.

We go through seven molecules from patent US10183039B2, “Methods for the production of collagen IV” (Vanderbilt University, priority 2013, dated 2019).

Like-named read-outs stand apart in the source and are kept apart here.

Chain of horseradish peroxidase (HRP) (P00433 31-338 limits assumed): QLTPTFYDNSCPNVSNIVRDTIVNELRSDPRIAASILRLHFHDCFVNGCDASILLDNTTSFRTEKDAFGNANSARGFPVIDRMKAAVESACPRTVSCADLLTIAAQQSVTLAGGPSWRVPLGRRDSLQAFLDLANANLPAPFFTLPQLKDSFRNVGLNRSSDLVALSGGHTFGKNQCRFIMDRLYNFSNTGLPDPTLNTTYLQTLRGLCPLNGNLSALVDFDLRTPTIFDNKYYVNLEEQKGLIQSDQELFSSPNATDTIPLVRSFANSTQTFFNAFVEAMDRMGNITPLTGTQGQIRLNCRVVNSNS
Chain of peroxidase (Q9VZZ4 24-1527): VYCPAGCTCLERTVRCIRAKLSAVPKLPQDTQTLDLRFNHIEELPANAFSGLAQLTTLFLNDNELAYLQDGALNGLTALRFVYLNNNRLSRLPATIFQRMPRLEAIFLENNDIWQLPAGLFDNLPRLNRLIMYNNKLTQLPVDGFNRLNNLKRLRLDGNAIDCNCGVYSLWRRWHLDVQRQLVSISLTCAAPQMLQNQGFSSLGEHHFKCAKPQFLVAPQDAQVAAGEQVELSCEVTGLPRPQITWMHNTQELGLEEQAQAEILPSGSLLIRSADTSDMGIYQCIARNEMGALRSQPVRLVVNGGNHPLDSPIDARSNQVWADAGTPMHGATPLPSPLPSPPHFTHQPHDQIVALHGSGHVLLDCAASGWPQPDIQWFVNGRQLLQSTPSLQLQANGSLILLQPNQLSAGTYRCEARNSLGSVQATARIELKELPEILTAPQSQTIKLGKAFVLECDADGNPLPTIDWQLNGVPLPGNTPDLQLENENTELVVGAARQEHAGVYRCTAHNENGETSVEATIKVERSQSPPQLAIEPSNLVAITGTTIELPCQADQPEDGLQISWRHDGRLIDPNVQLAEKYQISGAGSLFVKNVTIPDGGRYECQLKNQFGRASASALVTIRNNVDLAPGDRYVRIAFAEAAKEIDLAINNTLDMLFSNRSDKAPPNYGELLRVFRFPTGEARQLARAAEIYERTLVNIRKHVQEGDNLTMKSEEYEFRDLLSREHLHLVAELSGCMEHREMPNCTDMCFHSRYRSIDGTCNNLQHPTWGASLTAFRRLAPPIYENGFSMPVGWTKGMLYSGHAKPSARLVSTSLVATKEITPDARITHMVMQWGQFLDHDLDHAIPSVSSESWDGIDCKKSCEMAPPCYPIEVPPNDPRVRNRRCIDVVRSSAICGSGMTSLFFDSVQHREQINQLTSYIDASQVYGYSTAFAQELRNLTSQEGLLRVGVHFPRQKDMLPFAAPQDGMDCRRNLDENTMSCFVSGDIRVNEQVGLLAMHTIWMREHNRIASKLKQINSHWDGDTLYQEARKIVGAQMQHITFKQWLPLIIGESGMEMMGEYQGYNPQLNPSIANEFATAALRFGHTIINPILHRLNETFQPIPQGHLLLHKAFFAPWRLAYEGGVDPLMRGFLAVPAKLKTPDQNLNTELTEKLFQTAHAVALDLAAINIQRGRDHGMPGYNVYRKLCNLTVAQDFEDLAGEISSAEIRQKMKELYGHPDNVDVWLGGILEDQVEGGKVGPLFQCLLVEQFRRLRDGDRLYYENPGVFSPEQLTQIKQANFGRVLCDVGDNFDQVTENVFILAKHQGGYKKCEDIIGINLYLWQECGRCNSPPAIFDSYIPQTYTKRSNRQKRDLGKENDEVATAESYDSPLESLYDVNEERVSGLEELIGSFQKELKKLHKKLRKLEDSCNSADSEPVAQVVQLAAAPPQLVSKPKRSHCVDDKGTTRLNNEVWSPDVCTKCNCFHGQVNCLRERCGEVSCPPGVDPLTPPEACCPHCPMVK
Description for Drosophila eggs: All eggs deposited in a quadrant of a 55 mm laying cage were moved to a fresh phytagel surface and oriented with dorsal appendages facing the surface for quantitation of the aspect ratio which is calculated by dividing the anterior-posterior axis length by the egg's diameter. Eggs were collected after 168 hours of exposure to standard or experimental diets.
(FIG. 18B) Br^− concentration effect on egg aspect ratio, in single age-matched cohort of w^1118 flies, over time. Vertical axis represents mean aspect ratio (±S.E.M). […] Inset plotted as mean±95% C.I. and significance calculated with the Kruskall-Wallis test. […] PHG was administered in the food. All wild-type (w^1118) mothers were from the same cohort and reared identically, then divided into sub-cohorts for exposure to the indicated experimental diet.

As a reminder, the Ki is the dissociation constant of the complex between target and ligand, obtained from inhibition or displacement. As usually defined, the kinact is the maximal first-order rate at which the target is inactivated. In the case of `[N-]=[N+]=[N-]` [azide], in [1], the Ki is 1.47 mM and the inactivation rate constant (kinact) is 0.69 min⁻¹.

Take `Oc1cc(O)cc(O)c1` [phloroglucinol, reference compound]: the “egg aspect ratio under peroxidasin inhibition” value is “dose-dependent suppression in egg aspect ratio” in the assay on Drosophila eggs and “dose-dependent reduction in the exaggerated egg elongation” with Drosophila eggs (listed as PHG). For the same molecule, the IC50 on peroxidase is 500 nM. Moreover, the “crosslinking of native collagen IV network by overlaid cells” value in assay [2] is recorded as “failed to crosslink collagen IV”. For the same molecule, in the assay on PFHR-9 cells, the “formation of collagen IV crosslinks” value is listed as “prevented formation of collagen IV crosslinks”.

For “eosinophil peroxidase: animal heme peroxidase used as comparator”, the “formation of sulfilimine crosslinks in NC1 hexamer” value (shortened to “formation of sulfilimine crosslinks”) in the assay on collagen IV NC1 hexamer is “formed sulfilimine crosslinks in collagen IV”. Moreover, in assay [3], the hypohalous acid formation result is given as “primarily yielded hypobromous acid”.

As for “peroxidasin: heterologously expressed and purified human peroxidasin, a basement membrane heme peroxidase”, in the assay with collagen IV NC1 hexamer, the “formation of sulfilimine crosslinks” value is “robust formation of crosslinked dimeric subunits”. Also, in assay [3], the hypohalous acid formation entry is “formed hypobromous and hypochlorous acid at modest rates with a preference for bromide”; the HOCl production entry is “significantly greater than that mediated by lactoperoxidase”. Further, in assay [2], the “crosslinking of native collagen IV network by overlaid cells” value is given as “Only peroxidasin formed sulfilimine bonds in collagen IV”.

Turning to `Nc1nc[nH]n1` [3-aminotriazole], the inhibition of myeloperoxidase result at myeloperoxidase (10 mM) is reported as “near-complete inhibition”. Moreover, the “inhibition of thyroid peroxidase” value on thyroid peroxidase (2 mM) is reported as “near-complete inhibition”. Besides, the “formation of collagen IV crosslinks” value in the assay on PFHR-9 cells was “prevented formation of collagen IV crosslinks”.

For `Cn1cc[nH]c1=S` [methimazole], the inhibition of myeloperoxidase at myeloperoxidase (3 mM) was 70%. Moreover, at thyroid peroxidase, the IC50 is 800 nM. In addition, in the assay on PFHR-9 cells, the “formation of collagen IV crosslinks” value is given as “prevented formation of collagen IV crosslinks”.

With “lactoperoxidase: animal heme peroxidase used as comparator”, in the assay with collagen IV NC1 hexamer, the “formation of sulfilimine crosslinks” value was “poorly catalyzed crosslink formation”. In [3], the hypohalous acid formation entry is recorded as “formed neither hypohalous acid” and the HOCl production entry is “not statistically different from zero”.
